Test results from patent US20240041042A1, “1-(PYRIDYL)-5-AZINYLPYRAZOLE DERIVATIVES, AND THEIR USE FOR CONTROL OF UNDESIRED PLANT GROWTH” (Bayer Aktiengesellschaft, priority 2020, published 2024).

Legend:
Format in all cases: in vivo
[1] = system: Alopecurus myosuroides (ALOMY); assay: Pre-emergence herbicidal action against ALOMY; conditions: scored visually after about 3 weeks, 100% = plants have died
Outline: (§1)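 Herbicide applied to soil before seedling emergence, at 600 l/ha spray volume with 0.5% additive and rates up to 320 g/ha. Evaluation: visual percentage effect, about 3 weeks later, greenhouse-grown pots compared with untreated ones.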

[2] = system: Amaranthus retroflexus (AMARE); assay: Pre-emergence herbicidal action against AMARE; conditions: visual scoring after about 3 weeks vs untreated controls
Outline: as §1

[3] = system: Avena fatua (AVEFA); assay: Pre-emergence herbicidal action against AVEFA; conditions: 320 g/ha, visual scoring after about 3 weeks vs untreated controls
Outline: as §1

[4] = system: Digitaria sanguinalis (DIGSA); assay: Pre-emergence herbicidal action against DIGSA
Excerpt: Seeds of monocotyledonous and dicotyledonous weed plants and crop plants are placed in plastic or organic planting pots and covered with soil. The compounds of the invention, formulated in the form of wettable powders (WP) or as emulsion concentrates (EC), are then applied to the surface of the covering soil as aqueous suspension or emulsion with addition of 0.5% additive at a water application rate equivalent to 600 l/ha. After the treatment, the pots are placed in a greenhouse and kept under good growth conditions for the trial plants. After about 3 weeks, the effect of the preparations is scored visually in comparison with untreated controls as percentages. For example, 100% activity=the plants have died, 0% activity=like control plants.
Tables A1 to A13 below show the effects of selected compounds of the general formula (I) on various harmful plants and at an application rate corresponding to 320 g/ha or lower, which were obtained by the experimental procedure mentioned above. The appendices “a”, “b” and “c” give differentiation by dosage used with otherwise the same harmful plants tested.

[5] = system: Echinochloa crus-galli (ECHCG); assay: Pre-emergence herbicidal action against ECHCG
Outline: as §1

[6] = system: Lolium rigidum (LOLRI); assay: Pre-emergence herbicidal action against LOLRI
Outline: as §1

[7] = system: Matricaria inodora (MATIN); assay: Pre-emergence herbicidal action against MATIN
Outline: as §1

[8] = system: Pharbitis purpurea (PHBPU); assay: Pre-emergence herbicidal action against PHBPU
Outline: as §1

[9] = system: Polygonum convolvulus (POLCO); assay: Pre-emergence herbicidal action against POLCO
Outline: as §1

[10] = system: Setaria viridis (SETVI); assay: Pre-emergence herbicidal action against SETVI
Outline: as §1

[11] = system: Verconica persica (VERPE); assay: Pre-emergence herbicidal action against VERPE; conditions: dosage 320 g/ha
Outline: as §1

[12] = system: Viola tricolor (VIOTR); assay: Pre-emergence herbicidal action against VIOTR
Outline: as §1

[13] = system: Abutilon theophrasti (ABUTH); assay: Post-emergence herbicidal action against ABUTH; conditions: 80 g/ha, visual rating about 3 weeks after treatment vs untreated controls (100% = plants have died, 0% = like control plants)
Outline: (§2)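 Rates were 320 g/ha or below, applied as aqueous WP/EC spray with 0.5% additive (600 l/ha) onto one-leaf-stage plants. About 3 weeks later in the greenhouse, damage was scored visually against untreated plants on a 0–100% scale, where 100% means plants died.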

[14] = system: Alopecurus myosuroides (ALOMY); assay: Post-emergence herbicidal action against ALOMY; conditions: visual rating about 3 weeks after treatment vs untreated controls (100% = plants have died, 0% = like control plants)
Outline: as §2

[15] = system: Digitaria sanguinalis (DIGSA); assay: Post-emergence herbicidal action against DIGSA; conditions: visual rating about 3 weeks after treatment
Outline: as §2

[16] = system: Echinochloa crus-galli (ECHCG); assay: Post-emergence herbicidal action against ECHCG
Outline: as §2

[17] = system: Pharbitis purpurea (PHBPU); assay: Post-emergence herbicidal action against PHBPU
Outline: as §2

[18] = system: Polygonum convolvulus (POLCO); assay: Post-emergence herbicidal action against POLCO
Outline: as §2

[19] = system: Setaria viridis (SETVI); assay: Post-emergence herbicidal action against SETVI
Outline: as §2

[20] = system: Verconica persica (VERPE); assay: Post-emergence herbicidal action against VERPE
Outline: as §2

[21] = system: Viola tricolor (VIOTR); assay: Post-emergence herbicidal action against VIOTR
Outline: as §2

[22] = system: Lolium rigidum (LOLRI); assay: Post-emergence herbicidal action against LOLRI
Outline: as §2

[23] = system: Amaranthus retroflexus (AMARE); assay: Post-emergence herbicidal action against AMARE
Outline: as §2

[24] = system: Avena fatua (AVEFA); assay: Post-emergence herbicidal action against AVEFA; conditions: visual rating about 3 weeks after treatment
Outline: as §2

[25] = system: Oryza sativa (ORYSA); conditions: crop plant compatibility, 80 g/ha, effect in comparison to untreated controls
Outline: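 Foliar application at the one-leaf stage: WP/EC formulation, 0.5% additive, 600 l/ha water. Greenhouse-grown in sandy loam. Endpoint is visual % injury relative to untreated controls at about 3 weeks.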

[26] = 80 g/ha, visual scoring after about 3 weeks vs untreated controls

## CCOC(=O)COc1nn(-c2ncccc2F)c(-c2ccc(F)nc2)c1Cl [Example I-38]
[1]; 80 g/ha
  Pre-emergence action against ALOMY: 100%
[1]; 320 g/ha
  Pre-emergence action against ALOMY: 100%
[2]; 80 g/ha
  Pre-emergence action against AMARE in %: 100%
[2]; 320 g/ha
  Pre-emergence action against AMARE in %: 100%
[3]
  Pre-emergence action against AVEFA in %: 100%
[4]; [26]
  Pre-emergence action against DIGSA in %: 100%
[4]; dosage 320 g/ha
  Pre-emergence action against DIGSA in %: 100%
[5]; dosage 320 g/ha
  Pre-emergence action against ECHCG in %: 100%
[6]; dosage 320 g/ha
  Pre-emergence action against LOLRI in %: 100%
[7]; dosage 80 g/ha
  Pre-emergence action against MATIN in %: 100%
[7]; dosage 320 g/ha
  Pre-emergence action against MATIN in %: 100%
[8]; dosage 320 g/ha
  Pre-emergence action against PHBPU in %: 90%
[9]; dosage 80 g/ha
  Pre-emergence action against POLCO in %: 90%
[9]; dosage 320 g/ha
  Pre-emergence action against POLCO in %: 100%
[10]; dosage 80 g/ha
  Pre-emergence action against SETVI in %: 100%
[10]; dosage 320 g/ha
  Pre-emergence action against SETVI in %: 100%
[11]
  Pre-emergence action against VERPE in %: 100%
[12]; 320 g/ha, Viola tricolor
  Pre-emergence action against VIOTR in %: 100%
[12]; dosage 80 g/ha
  Pre-emergence action against VIOTR in %: 100%
[13]
  Post-emergence action against ABUTH in %: 80%
[14]; 80 g/ha
  Post-emergence action against ALOMY in %: 100%
[15]; 80 g/ha
  Post-emergence action against DIGSA in %: 90%
[16]; dosage 80 g/ha
  Post-emergence action against ECHCG in %: 90%
[17]; dosage 80 g/ha
  Post-emergence action against PHBPU in %: 90%
[18]; dosage 80 g/ha
  Post-emergence action against POLCO in %: 80%
[19]; dosage 80 g/ha
  Post-emergence action against SETVI in %: 80%
[20]; dosage 80 g/ha
  Post-emergence action against VERPE in %: 80%
[21]; 80 g/ha
  Post-emergence action against VIOTR in %: 80%

## CCOC(=O)COc1nn(-c2nc(F)ccc2F)c(-c2cncc(F)c2)c1Cl [Example I-163]
[1]; 320 g/ha
  Pre-emergence action against ALOMY: 90%
[2]; 320 g/ha
  Pre-emergence action against AMARE in %: 90%
[4]; [26]
  Pre-emergence action against DIGSA in %: 90%
[4]; dosage 320 g/ha
  Pre-emergence action against DIGSA in %: 100%
[5]; dosage 80 g/ha
  Pre-emergence action against ECHCG in %: 80%
[5]; dosage 320 g/ha
  Pre-emergence action against ECHCG in %: 90%
[6]; dosage 320 g/ha
  Pre-emergence action against LOLRI in %: 90%
[7]; dosage 80 g/ha
  Pre-emergence action against MATIN in %: 90%
[7]; dosage 320 g/ha
  Pre-emergence action against MATIN in %: 90%
[8]; dosage 80 g/ha
  Pre-emergence action against PHBPU in %: 90%
[8]; dosage 320 g/ha
  Pre-emergence action against PHBPU in %: 90%
[9]; dosage 80 g/ha
  Pre-emergence action against POLCO in %: 80%
[9]; dosage 320 g/ha
  Pre-emergence action against POLCO in %: 80%
[10]; dosage 80 g/ha
  Pre-emergence action against SETVI in %: 80%
[10]; dosage 320 g/ha
  Pre-emergence action against SETVI in %: 100%
[11]
  Pre-emergence action against VERPE in %: 80%
[12]; 320 g/ha, Viola tricolor
  Pre-emergence action against VIOTR in %: 100%
[12]; dosage 80 g/ha
  Pre-emergence action against VIOTR in %: 90%
[14]; 320 g/ha
  Post-emergence action against ALOMY in %: 80%
[15]; 320 g/ha
  Post-emergence action against DIGSA in %: 80%
[16]; dosage 80 g/ha
  Post-emergence action against ECHCG in %: 80%
[16]; dosage 320 g/ha
  Post-emergence action against ECHCG in %: 80%
[22]; dosage 320 g/ha
  Post-emergence action against LOLRI in %: 80%
[17]; dosage 80 g/ha
  Post-emergence action against PHBPU in %: 80%
[17]; dosage 320 g/ha
  Post-emergence action against PHBPU in %: 90%
[19]; dosage 80 g/ha
  Post-emergence action against SETVI in %: 80%
[19]; dosage 320 g/ha
  Post-emergence action against SETVI in %: 90%
[21]; 320 g/ha
  Post-emergence action against VIOTR in %: 80%

## C=C(COC(=O)[C@@H](C)Oc1nn(-c2ccccn2)c(-c2ccc(F)nc2)c1Cl)C(=O)OC [Example I-322]
[1]; 80 g/ha
  Pre-emergence action against ALOMY: 80%
[1]; 320 g/ha
  Pre-emergence action against ALOMY: 100%
[2]; 320 g/ha
  Pre-emergence action against AMARE in %: 100%
[3]
  Pre-emergence action against AVEFA in %: 90%
[4]; [26]
  Pre-emergence action against DIGSA in %: 100%
[4]; dosage 320 g/ha
  Pre-emergence action against DIGSA in %: 100%
[5]; dosage 80 g/ha
  Pre-emergence action against ECHCG in %: 80%
[5]; dosage 320 g/ha
  Pre-emergence action against ECHCG in %: 100%
[6]; dosage 80 g/ha
  Pre-emergence action against LOLRI in %: 90%
[6]; dosage 320 g/ha
  Pre-emergence action against LOLRI in %: 100%
[7]; dosage 320 g/ha
  Pre-emergence action against MATIN in %: 80%
[8]; dosage 320 g/ha
  Pre-emergence action against PHBPU in %: 90%
[9]; dosage 80 g/ha
  Pre-emergence action against POLCO in %: 80%
[9]; dosage 320 g/ha
  Pre-emergence action against POLCO in %: 90%
[10]; dosage 80 g/ha
  Pre-emergence action against SETVI in %: 90%
[10]; dosage 320 g/ha
  Pre-emergence action against SETVI in %: 100%
[12]; 320 g/ha, Viola tricolor
  Pre-emergence action against VIOTR in %: 100%
[12]; dosage 80 g/ha
  Pre-emergence action against VIOTR in %: 80%
[14]; 320 g/ha
  Post-emergence action against ALOMY in %: 80%
[23]; 80 g/ha, visual rating about 3 weeks after treatment vs untreated controls (100% = plants have died, 0% = like control plants)
  Post-emergence action against AMARE in %: 80%
[23]; 320 g/ha, visual rating about 3 weeks after treatment
  Post-emergence action against AMARE in %: 80%
[24]; 80 g/ha
  Post-emergence action against AVEFA in %: 80%
[24]; 320 g/ha
  Post-emergence action against AVEFA in %: 80%
[15]; 80 g/ha
  Post-emergence action against DIGSA in %: 80%
[15]; 320 g/ha
  Post-emergence action against DIGSA in %: 80%
[16]; dosage 320 g/ha
  Post-emergence action against ECHCG in %: 80%
[22]; dosage 80 g/ha
  Post-emergence action against LOLRI in %: 80%
[22]; dosage 320 g/ha
  Post-emergence action against LOLRI in %: 80%
[17]; dosage 80 g/ha
  Post-emergence action against PHBPU in %: 80%
[17]; dosage 320 g/ha
  Post-emergence action against PHBPU in %: 80%
[18]; dosage 80 g/ha
  Post-emergence action against POLCO in %: 80%
[18]; dosage 320 g/ha
  Post-emergence action against POLCO in %: 80%
[19]; dosage 80 g/ha
  Post-emergence action against SETVI in %: 80%
[19]; dosage 320 g/ha
  Post-emergence action against SETVI in %: 80%
[20]; 320 g/ha, VERPE
  Post-emergence action against VERPE in %: 80%
[20]; dosage 80 g/ha
  Post-emergence action against VERPE in %: 80%
[21]; 80 g/ha
  Post-emergence action against VIOTR in %: 80%
[21]; 320 g/ha
  Post-emergence action against VIOTR in %: 80%
[25]
  Post-emergence action against ORYSA in %: 10%
